Data from patent publication US5602101A, “Antithrombotic agents” (priority 1994, dated 1997).

Key:
factor Xa = biological target: T1, factor Xa (Homo sapiens, UniProt P00742); assay: Serine protease inhibition, factor Xa (chromogenic substrate), Kass; assay type: biochemical; settings: substrate N-Benzoyl-Ile-Glu-Gly-Arg-p-nitroanilide
T1 construct: Human factors X, Xa, IXa, XIa, and xIIa are purchased from Enzyme Research Laboratories; purchased Enzyme Research Laboratories, South Bend, Ind
Procedure: (§1) The assay is carried out by mixing 50 μl buffer (0.03M Tris, 0.15M NaCl, pH 7.4), 25 μl of human thrombin solution (purified human thrombin Enzyme Research Laboratories, South Bend, Ind.) at 8 NIH units/ml and 25 μl of test compound in a solvent (50% aqueous methanol (v:v)). Then 150 μl of an aqueous solution of the chromogenic substrate (at 0.25 mg/ml) are added and the rates of hydrolysis of the substrate are measured by monitoring the reactions at 405 nm for the release of p-nitroaniline. Standard curves are constructed by plotting free thrombin concentration against hydrolysis rate. The hydrolysis rates observed with test compounds are then converted to "free thrombin" values in the respective assays by use of the standard curves. The bound thrombin (bound to test compound) is calculated by subtracting the amount of free thrombin observed in each assay from the known initial amount of thrombin used in the assay. The amount of free inhibitor in each assay is calculated by subtracting the number of moles of bound thrombin from the number of moles of added inhibitor (test compound).
(§2) Kass is calculated for a range of concentrations of test compounds and the mean value is reported in units of liter per mole.
(§3) By substantially following the procedures described above for human thrombin, and using other human blood coagulation system serine proteases, and using fibrinolytic system serine proteases, with the appropriate chromogenic substrate, identified below, selectivity of the compounds of the present invention with respect to the coagulation factor serine proteases and to the fibrinolytic serine proteases are evaluated as well as their substantial lack of interference with human plasma clot fibrinolysis.
(§4) Human factors X, Xa, IXa, XIa, and xIIa are purchased from Enzyme Research Laboratories, South Bend, Ind.; human urokinase from Leo Pharmaceuticals, Denmark; and recombinant activated Protein C (aPC) is prepared at Eli Lilly and Co. substantially according to U.S. Pat. No. 4,981,952 incorporated by reference herein in its entirety. Chromogenic substrates: N-Benzoyl-Ile-Glu-Gly-Arg-p-nitroanilide (for factor Xa); N-Cbz-D-Arg-Gly-Arg-p-nitroanilide (for factor IXa assay as the factor Xa substrate) pyroglutamyl-Pro-Arg-p-nitroanilide (for factor XIa and for aPC); H-D-Pro-Phe-Arg-p-nitroanilide (for factor XIIa); and pyroglutamyl-Gly-Arg-p-nitroanilide (for urokinase); are purchased from KabiVitrum, Stockholm, Sweden, or from Midwest Biotech, Fishers, Indiana. Bovine trypsin is purchased from Worthington Biochemicals, Freehold, N.J., and human plasma kallikrein from Kabi Vitrum, Stockholm, Sweden. N-Benzoyl-Phe-Val-Arg-p-nitroanilide, the substrate for human thrombin and for trypsin, is synthesized according to procedures described above for the compounds of the present invention, known methods of peptide coupling from commercially available reactants, or was purchased from Midwest Biotech, Fishers, Ind. Human plasmin is purchased from Boehringer Mannheim, Indianapolis, Ind.; nt-PA is purchased as single chain activity reference from American Diagnostics, Greenwich, Conn.; modified-t-PA6 (mt-PA6) is prepared at Eli Lilly and Company by procedure known in the art (See, Burck, et al., J. Biol. Chem., 265, […] (1990). Plasmin chromogenic substrate H-D-Val-Leu-Lys-p-nitroanilide and tissue plasminegen activator (t-PA) substrate H-D-Ile-Pro-Arg-p-nitroanilide are purchased from Kabi Vitrum, Stockholm, Sweden.

Human Plasma [1] = assay: Anticoagulation in human plasma, activated partial thromboplastin time (APTT); assay type: biochemical; settings: concentration required to double the APTT
Procedure: (§5) Dog plasma and rat plasma are obtained from conscious mixed-breed hounds (either sex, Hazelton-LRE, Kalamazoo, Mich., U.S.A.) or from anesthetized male Sprague-Dawley rats (Harlan Sprague-Dawley, Inc., Indianapolis, Ind., U.S.A.) by venipuncture into 3.8 percent citrate. Fibrinogen is prepared from in-date ACD human blood as the fraction I-2 according to previous procedures and specifications. Smith, Biochem. Chem. […] Human fibrinogen is also purchased as 98 percent pure/plasmin free from American Diagnostics, Greenwich, Conn. Coagulation reagents ACTIN, Thromboplastin, and Human plasma are from Baxter Healthcare Corp., Dade Division, Miami, Fla. Bovine thrombin from Parke-Davis (Ann Arbor, Mich.) is used for coagulation assays in plasma. Coagulation assay procedures are as previously described. Smith, et al., Thrombosis Research, 5, 163-174 (1988). A CoAScreener coagulation instrument (American LABor, Inc.) is used for all coagulation assay measurements. The prothrombin time (PT) is measured by adding 0.05 ml saline and 0.05 ml Thromboplastin-C reagent to 0.05 ml test plasma. The activated partial thromboplastin time (APTT) is measured by incubation of 0.05 ml test plasma with 0.05 ml Actin reagent for 120 seconds followed by 0.05 ml CaCl2 (0.02M). […] The compounds of formula I are added to human or animal plasma over a wide range of concentrations to determine prolongation effects on the APTT, PT, and TT assays. Linear extrapolations are performed to estimate the concentrations required to double the clotting time for each assay.

Human plasmin = biological target: T2, Human plasmin (Homo sapiens, UniProt P00747); assay: Serine protease inhibition, plasmin (chromogenic substrate), Kass; assay type: biochemical; settings: substrate H-D-Val-Leu-Lys-p-nitroanilide
T2 construct: Human plasmin is purchased from Boehringer Mannheim, Indianapolis, Ind; purchased Boehringer Mannheim, Indianapolis, Ind
Procedure: as §1, §2, §3, §4

Human Plasma [2] = assay: Anticoagulation in human plasma, thrombin time (TT); assay type: biochemical; settings: concentration required to double the thrombin time
Procedure: as §5

Human Plasma [3] = assay: Anticoagulation in human plasma, prothrombin time (PT); assay type: biochemical; settings: concentration required to double the PT
Procedure: as §5

[4] = Index of bioavailability (plasma TT AUC, p.o. vs i.v.); settings: rats, adjusted for dose
[5] = biological target: T3, tissue plasminogen activator (t-PA) (Homo sapiens, UniProt P00750); assay: Serine protease inhibition, t-PA (chromogenic substrate), Kass; assay type: biochemical; settings: substrate H-D-Ile-Pro-Arg-p-nitroanilide
T3 construct: purchased American Diagnostics, Greenwich, Conn
Procedure: as §1, §2, §3, §4

human thrombin = biological target: T4, human thrombin (Homo sapiens, UniProt P00734); assay: Inhibition of amidase activity of thrombin (chromogenic substrate), Kass; assay type: biochemical; settings: substrate N-benzoyl-Phe-Val-Arg-p-nitroanilide, pH 7.4
T4 construct: purified human thrombin Enzyme Research Laboratories, South Bend, Ind; purchased Enzyme Research Laboratories, South Bend, Ind
Procedure: as §1
The Kass value is the hypothetical equilibrium constant for the reaction between thrombin and the test compound (I). [drawing 53]
as §2

Bovine trypsin = biological target: T5, Bovine trypsin (Bos taurus, UniProt P00760); assay: Serine protease inhibition, trypsin (chromogenic substrate), Kass; assay type: biochemical; settings: substrate N-Benzoyl-Phe-Val-Arg-p-nitroanilide
T5 construct: Bovine trypsin is purchased from Worthington Biochemicals, Freehold, N.J; purchased Worthington Biochemicals, Freehold, N.J
T5 sequence (P00760 24-246): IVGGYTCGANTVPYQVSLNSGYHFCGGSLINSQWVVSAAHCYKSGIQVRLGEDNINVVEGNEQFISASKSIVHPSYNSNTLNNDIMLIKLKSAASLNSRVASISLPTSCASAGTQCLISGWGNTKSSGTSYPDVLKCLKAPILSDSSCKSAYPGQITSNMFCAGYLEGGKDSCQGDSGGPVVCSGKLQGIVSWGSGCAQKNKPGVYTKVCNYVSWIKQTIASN
Procedure: as §1, §2, §3, §4

T2 sequence (P00747 581-810 limits assumed): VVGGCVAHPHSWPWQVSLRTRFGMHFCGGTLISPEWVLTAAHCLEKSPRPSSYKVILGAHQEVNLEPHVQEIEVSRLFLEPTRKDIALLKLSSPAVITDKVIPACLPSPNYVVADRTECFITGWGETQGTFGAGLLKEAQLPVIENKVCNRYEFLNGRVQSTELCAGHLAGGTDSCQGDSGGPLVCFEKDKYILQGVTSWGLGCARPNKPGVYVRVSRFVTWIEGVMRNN
T2 sequence (P00747 97-580 partner limits assumed): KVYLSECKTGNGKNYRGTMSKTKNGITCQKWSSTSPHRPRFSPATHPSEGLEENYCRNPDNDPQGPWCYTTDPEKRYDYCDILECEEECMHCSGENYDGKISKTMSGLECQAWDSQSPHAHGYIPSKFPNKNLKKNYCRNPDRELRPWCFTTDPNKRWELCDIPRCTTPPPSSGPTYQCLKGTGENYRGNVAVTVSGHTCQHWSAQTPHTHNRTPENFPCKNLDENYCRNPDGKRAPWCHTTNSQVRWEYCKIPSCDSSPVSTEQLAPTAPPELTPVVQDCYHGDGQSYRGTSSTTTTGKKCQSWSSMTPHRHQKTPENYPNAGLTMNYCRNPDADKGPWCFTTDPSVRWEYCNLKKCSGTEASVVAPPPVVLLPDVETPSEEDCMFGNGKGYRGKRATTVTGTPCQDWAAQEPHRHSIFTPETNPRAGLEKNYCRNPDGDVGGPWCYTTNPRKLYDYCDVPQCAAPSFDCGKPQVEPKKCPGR
T3 sequence (P00750 36-562): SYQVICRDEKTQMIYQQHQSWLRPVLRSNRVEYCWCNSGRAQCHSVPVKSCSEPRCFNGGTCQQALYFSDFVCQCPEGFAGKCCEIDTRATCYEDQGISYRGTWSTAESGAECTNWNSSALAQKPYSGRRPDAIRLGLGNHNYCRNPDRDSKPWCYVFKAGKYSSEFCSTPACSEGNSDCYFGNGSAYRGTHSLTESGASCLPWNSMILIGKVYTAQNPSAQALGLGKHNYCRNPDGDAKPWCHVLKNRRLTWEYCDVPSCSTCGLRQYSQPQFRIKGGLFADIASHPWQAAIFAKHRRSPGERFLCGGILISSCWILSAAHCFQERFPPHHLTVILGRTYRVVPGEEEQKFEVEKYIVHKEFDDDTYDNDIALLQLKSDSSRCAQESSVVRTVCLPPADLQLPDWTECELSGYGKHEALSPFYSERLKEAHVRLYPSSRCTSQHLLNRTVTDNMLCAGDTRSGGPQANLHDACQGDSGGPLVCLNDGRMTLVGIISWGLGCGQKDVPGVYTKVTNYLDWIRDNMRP
T1 sequence (P00742 235-488 limits assumed): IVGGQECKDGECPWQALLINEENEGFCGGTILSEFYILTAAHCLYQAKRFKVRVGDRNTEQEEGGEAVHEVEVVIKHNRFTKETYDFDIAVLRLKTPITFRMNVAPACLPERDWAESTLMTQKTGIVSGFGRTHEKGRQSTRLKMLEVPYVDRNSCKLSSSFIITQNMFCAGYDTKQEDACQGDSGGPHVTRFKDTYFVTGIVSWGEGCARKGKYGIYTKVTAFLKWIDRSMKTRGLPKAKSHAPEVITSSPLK
T1 sequence (P00742 41-179 partner limits assumed): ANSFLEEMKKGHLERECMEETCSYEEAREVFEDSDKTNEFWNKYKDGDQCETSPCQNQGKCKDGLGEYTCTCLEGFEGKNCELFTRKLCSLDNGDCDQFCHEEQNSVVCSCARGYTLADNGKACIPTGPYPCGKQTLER

| Structure (SMILES) | Enzyme Kass, Xa (factor Xa) | Enzyme Kass, Plasmin (Human plasmin) | Enzyme Kass, t-Pa [5] | Enzyme Kass, Human Thrombin (human thrombin) | Enzyme Kass, Trypsin (Bovine trypsin) | 2 × Clotting time, APTT (Human Plasma [1]) | 2 × Clotting time, TT (Human Plasma [2]) | 2 × Clotting time, PT (Human Plasma [3]) | Index of Bioavailability, % Relative Activity [4] |
| --- | --- | --- | --- | --- | --- | --- | --- | --- | --- |
| CC(C)S(=O)(=O)N[C@H](Cc1ccccc1)C(=O)N1CCC[C@H]1C(=O)N[C@H](C=O)CCCNC(=N)N.Cl [Example 11, i-Pr-SO2 -D-Phe-Pro-Arg-H-HCl] | 6.0 L/mol × 10^6 | 25 L/mol × 10^6 | 3.5 L/mol × 10^6 | 460 L/mol × 10^6 | 260 L/mol × 10^6 | 270 ng/mL | 13 ng/mL | 510 ng/mL | 10% |
| Cl.NC(N)=NCCCC(C=O)NC(=O)C1CCCN1C(=O)C(Cc1ccccc1)NC(=O)c1ccc2ccccc2n1 (stereo not shown) [Example 2] | 0.16 L/mol × 10^6 | 0.55 L/mol × 10^6 | 0.32 L/mol × 10^6 | 110 L/mol × 10^6 | 22 L/mol × 10^6 | 1,100 ng/ML | 35 ng/mL | 1,400 ng/ML | 1% |
| CCCN(CCC)S(=O)(=O)c1ccc(C(=O)N[C@H](Cc2ccccc2)C(=O)N2CCC[C@H]2C(=O)N[C@H](C=O)CCCNC(=N)N)cc1.Cl [Example 29, 4-(n-Pr2 NSO2)-C6 H4 CO-D-Phe-Pro-Arg-H.HCl] | 0.32 L/mol × 10^6 | 0.86 L/mol × 10^6 | 0.62 L/mol × 10^6 | 43 L/mol × 10^6 | 15 L/mol × 10^6 | 3,500 ng/ML | 150 ng/mL | 4,800 ng/ML |  |
| Cl.Cn1c(C(=O)NC(CC2CCCCC2)C(=O)N2CCCC2C(=O)NC(C=O)CCCN=C(N)N)cc2ccccc21 [Example 5, NMI-D-Cha-Pro-Arg-H.HCl] | 4.6 L/mol × 10^6 | 25 L/mol × 10^6 | 1.1 L/mol × 10^6 | 320 L/mol × 10^6 | 7.9 L/mol × 10^6 | 1,000 ng/ML | 110 ng/mL | 2,500 ng/ML |  |
| Cl.NC(N)=NCCCC(C=O)NC(=O)C1CCCN1C(=O)C(Cc1ccccc1)NC(=O)Cc1cccnc1 [Example 4, N-(α-(3-pyridyl)-acetyl)-D-Phe-Pro-Arg-H-HCl] | 0.067 L/mol × 10^6 | 0.27 L/mol × 10^6 | 0.22 L/mol × 10^6 | 13 L/mol × 10^6 | 5.2 L/mol × 10^6 | 2,300 ng/ML | 150 ng/mL | 3,400 ng/ML |  |
| CCS(=O)(=O)N[C@@H](C(=O)N1CCC[C@H]1C(=O)N[C@H](C=O)CCCNC(=N)N)c1ccccc1.Cl [Example 20, EtSO2 -D-Phg-Pro-Arg-H.HCl] | 45 L/mol × 10^6 | 14 L/mol × 10^6 | 0.34 L/mol × 10^6 | 510 L/mol × 10^6 | 160 L/mol × 10^6 | 250 ng/mL | 34 ng/mL | 880 ng/mL |  |
| COCC(=O)N[C@H](Cc1ccccc1)C(=O)N1CCC[C@H]1C(=O)N[C@H](C=O)CCCNC(=N)N.Cl [Example 24, CH3 OCH2 CO-D-Phe-Pro-Arg-H.HCl] | 0.29 L/mol × 10^6 | 3.8 L/mol × 10^6 | 0.30 L/mol × 10^6 | 33 L/mol × 10^6 | 57 L/mol × 10^6 | 440 ng/mL | 38 ng/mL | 1,200 ng/ML |  |

Continued, in another order:

| Enzyme Kass, Xa (factor Xa) | Enzyme Kass, Plasmin (Human plasmin) | Enzyme Kass, t-Pa [5] | Enzyme Kass, Human Thrombin (human thrombin) | Enzyme Kass, Trypsin (Bovine trypsin) | Structure (SMILES) | 2 × Clotting time, APTT (Human Plasma [1]) | 2 × Clotting time, TT (Human Plasma [2]) | 2 × Clotting time, PT (Human Plasma [3]) | Index of Bioavailability, % Relative Activity [4] |
| --- | --- | --- | --- | --- | --- | --- | --- | --- | --- |
| 0.21 L/mol × 10^6 | 2.0 L/mol × 10^6 | 0.54 L/mol × 10^6 | 25 L/mol × 10^6 | 60 L/mol × 10^6 | CCNC(=O)N[C@H](Cc1ccccc1)C(=O)N1CCC[C@H]1C(=O)N[C@H](C=O)CCCN=C(N)N.Cl [Example 32, EtNHCO-D-Phe-Pro-Arg-H.HCl] | 1,100 ng/ML | 63 ng/mL | 1,700 ng/ML |  |
| 24 L/mol × 10^6 | 13 L/mol × 10^6 | 0.11 L/mol × 10^6 | 260 L/mol × 10^6 | 260 L/mol × 10^6 | CCS(=O)(=O)N[C@@H](C(=O)N1CCC[C@H]1C(=O)N[C@H](C=O)CCCNC(=N)N)C1CCCCC1.Cl [Example 22, EtSO2 -D-Chg-Pro-Arg-H.HCl] | 330 ng/mL | 46 ng/mL | 1,100 ng/ML |  |
| 0.064 L/mol × 10^6 | 0.24 L/mol × 10^6 | 0.26 L/mol × 10^6 | 20 L/mol × 10^6 | 5.9 L/mol × 10^6 | Cl.N=C(N)NCCC[C@@H](C=O)NC(=O)[C@@H]1CCCN1C(=O)[C@@H](Cc1ccccc1)NC(=O)C1CCCCC1 [Example 27, cyclohexyl-CO-D-Phe-Pro-Arg-H.HCl] | 1,300 ng/ML | 63 ng/mL | 1,800 ng/ML |  |
